# Test results: patent publication US12012412B2, “Solid forms of pyrazolo[3,4-d]pyrimidine compounds” (Pfizer Inc., priority 2021, dated 2024)
# Experiments:
# Format in all cases: physicochemical
# [1] = Chemical and physical stability of Solid Form A (real-time and accelerated storage); details: for Time through which chemically and physically stable: unmilled, bulk packaging
# [2] = Water sorption (dynamic vapor sorption) of Solid Form A; details: 25° C.
# Experimental: Solid Form A is non-hygroscopic, absorbing less than 0.05% water at 90% RH, 25° C. See FIG. 7 for the isotherm plot.
# [3] = True density of Solid Form A
# [4] = Gravimetric analysis (TGA/EGA) of Solid Form A; details: heated at 10° C./minute
# Experimental: 10.9587 mg of Solid Form A was placed in a platinum crucible. This was analysed on a TA Instruments Discovery ThermoGravimetric Analyser, using a method that heated the sample from 25° C. to 300° C. at 10° C./minute with a nitrogen purge gas; alternatively, approximately 5-10 mg of material was weighed into an open aluminum pan and loaded into a simultaneous thermogravimetric/differential thermal analyzer (TG/DTA) and held at room temperature. The sample was then heated at a rate of 10° C./min from 20° C. to 400° C. during which time the change in sample weight was recorded along with any differential thermal events (DTA). Nitrogen was used as the purge gas, at a flow rate of 300 cm^3/min.
# [5] = Solubility of Solid Form A and amorphous Compound X in various solvents at room temperature
# [6] = Physical stability of Solid Form A to milling
# Experimental: Samples of Solid Form A were milled to reduce particle size.
# Milled samples of Solid Form A were remilled, and exposed at 40° C./75% RH.
# [7] = Particle size of batches of Solid Form A
# Text: Primary particles from below 100 μm to around 500 μm in size, with soft agglomerates up to several millimeters, were observed. The D[4,3] of this material was 195 μm. This material was subsequently milled, to give far fewer large particles and an overall much smaller average primary particle size, giving a D[4,3] of 49.5 μm. See Table 8 for a comparison of particle size properties of various batches.
# [8] = Aqueous solubility of Solid Form A in biologically relevant pH conditions at 25° C.; details: thermodynamic from solid
# [9] = Organic solubility: gravimetric (TGA) solubility at 25° C.
# [10] = milled samples remilled, exposed at 40° C./75% RH
structure (smiles),measurement,setting,value
"C[C@@H]1CN(Cc2ncccn2)C[C@H]1c1nc2c(cnn2C2CCOCC2)c(=O)[nH]1 [Solid Form A, 6-((3S,4S)-4-methyl-1-(pyrimidin-2-ylmethyl)pyrrolidin-3-yl)-1-(tetrahydro-2H-pyran-4-yl)-1,5-dihydro-4H-pyrazolo[3,4-d]pyrimidin-4-one]",Stability on storage,"[1]; milled, 70° C./75% RH, 1 week",no change in stability
same,Time through which chemically and physically stable,[1]; 40° C./75% RH accelerated conditions,≥ 6 months
same,Time through which chemically and physically stable,[1]; room temperature conditions (63 months @ 15-30° C. and 21 months at 25° C./60% RH),≥ 84 months
same,"Water Content, Desorption",[2]; 0 % RH,0 % w/w
same,"Water Content, Sorption",[2]; 0 % RH,0 % w/w
same,"Water Content, Desorption",[2]; 10 % RH,0.01 % w/w
same,"Water Content, Sorption",[2]; 10 % RH,0.01 % w/w
same,"Water Content, Desorption",[2]; 20 % RH,0.01 % w/w
same,"Water Content, Sorption",[2]; 20 % RH,0.01 % w/w
same,Hygroscopicity,[2],non-hygroscopic
same,"Water Content, Desorption",[2]; 30 % RH,0.01 % w/w
same,"Water Content, Sorption",[2]; 30 % RH,0.01 % w/w
same,"Water Content, Desorption",[2]; 40 % RH,0.02 % w/w
same,"Water Content, Sorption",[2]; 40 % RH,0.02 % w/w
same,"Water Content, Desorption",[2]; 50 % RH,0.02 % w/w
same,"Water Content, Sorption",[2]; 50 % RH,0.02 % w/w
same,"Water Content, Desorption",[2]; 60 % RH,0.02 % w/w
same,"Water Content, Sorption",[2]; 60 % RH,0.02 % w/w
same,"Water Content, Desorption",[2]; 70 % RH,0.03 % w/w
same,"Water Content, Sorption",[2]; 70 % RH,0.03 % w/w
same,"Water Content, Desorption",[2]; 80 % RH,0.03 % w/w
same,"Water Content, Sorption",[2]; 80 % RH,0.03 % w/w
same,Water absorbed,[2]; 90% RH,less than 0.05%
same,True Density (crystal structure),[3]; from crystal structure,1.279 Mg/m^3
same,True Density (measured),[3]; measured,1.29 Mg/m^3
same,Temperature until which no significant degradation is seen (TGA),[4],degradation until approximately 240 °C See FIG. 3.
same,Solubility (mg/ml),"[5]; 1,2-Xylene",>65.4 mg/mL
same,Solubility (mmol),"[5]; 1,2-Xylene",>165 mmol
same,Solubility (mg/ml),[5]; Acetone,49.4 mg/mL
same,Solubility (mmol),[5]; Acetone,125 mmol
same,Solubility (mmol),[5]; Chloroform,>145 mmol
same,Solubility (mmol),[5]; Dioxane,>117 mmol
same,Solubility (mg/ml),[5]; EtOAc,44.7 mg/mL
same,Solubility (mmol),[5]; EtOAc,113 mmol
same,Solubility (mmol),[5]; EtOH,160 mmol
same,Solubility (mmol),"[5]; Glyme (1,2-Dimethoxyethane)",>159 mmol
same,Solubility (mmol),[5]; H2O (Water),89 mmol
same,Solubility (mmol),[5]; H2O-EtOH (Water/EtOH),>75 mmol
same,Solubility (mg/ml),[5]; H2O-MeCN (Water/MeCN),>27 mg/mL
same,Solubility (mmol),[5]; H2O-MeCN (Water/MeCN),>68 mmol
same,Solubility (mmol),[5]; H2O-MeOH (Water/MeOH),>87 mmol
same,Solubility (mg/ml),[5]; H2O-acetone (Water/acetone),>33.3 mg/mL
same,Solubility (mmol),[5]; H2O-acetone (Water/acetone),>84 mmol
same,Solubility (mmol),[5]; Heptane,1 mmol
same,Solubility (mg/ml),[5]; IPA,29.2 mg/mL
same,Solubility (mmol),[5]; IPA,74 mmol
same,Solubility (mmol),[5]; MTBE,17 mmol
same,solubility,"[5]; MTBE, organic solvent or mixture",6.7 mg/mL
same,Solubility (mg/ml),[5]; MeCN,47.8 mg/mL
same,Solubility (mmol),[5]; MeCN,121 mmol
same,Solubility (mmol),[5]; MeOH,>181 mmol
same,Solubility (mmol),[5]; Methoxy ethanol,>188 mmol
same,Solubility (mmol),[5]; Nitromethane,>189 mmol
same,Solubility (mmol),[5]; THF,>147 mmol
same,solubility,"[5]; THF, organic solvent or mixture",> 58 mg/mL
same,Solubility (mg/ml),[5]; Toluene,52.2 mg/mL
same,Solubility (mmol),[5]; Toluene,132 mmol
same,solubility,"[5]; chloroform, organic solvent or mixture",> 57.5 mg/mL
same,solubility,"[5]; dioxane, organic solvent or mixture",> 46.3 mg/mL
same,solubility,"[5]; ethanol (EtOH), organic solvent or mixture, EtOH",63.4 mg/mL
same,solubility,"[5]; glyme (1,2-dimethoxyethane), organic solvent or mixture",> 63 mg/mL
same,solubility,"[5]; heptane, organic solvent or mixture",0.6 mg/mL
same,solubility,"[5]; methanol (MeOH), organic solvent or mixture, MeOH",> 71.4 mg/mL
same,solubility,"[5]; methoxy ethanol, organic solvent or mixture",> 74.5 mg/mL
same,solubility,"[5]; nitromethane, organic solvent or mixture",> 74.9 mg/mL
same,solubility,"[5]; water, H2O (Water)",35.3 mg/mL
same,solubility,"[5]; water/EtOH, aqueous with cosolvent or surfactant or cyclodextrin, H2O-EtOH (Water/EtOH)",> 29.8 mg/mL
same,solubility,"[5]; water/MeOH, aqueous with cosolvent or surfactant or cyclodextrin, H2O-MeOH (Water/MeOH)",> 34.2 mg/mL
same,Change in crystallinity (XRPD),[6]; [10],no sign of a decrease in crystallinity
same,Form change (XRPD),[6]; [10],no sign of form change
same,Impact of milling upon polymorphic form,[6]; milled to reduce particle size,No impact upon polymorphic form
same,"Particle size D[4, 3]",[7]; after milling,49.5 μm
same,"Particle size D[4, 3]",[7]; unmilled material,195 μm
same,solubility,"[8]; aqueous buffer, 100 mM Citrate buffer, pH 4.5, 25° C.",> 55.9 mg/mL
same,solubility,"[8]; aqueous buffer, 100 mM Citrate buffer, pH 6.0, 25° C.",> 52.2 mg/mL
same,solubility,"[8]; aqueous buffer, 100 mM Phosphate buffer, pH 6.5, 25° C.",> 53.3 mg/mL
same,solubility,"[8]; aqueous buffer, 100 mM Succinate buffer, pH 4.0, 25° C.",> 58.6 mg/mL
same,solubility,"[8]; aqueous buffer, 100 mM Succinate buffer, pH 5.5, 25° C.",> 52.8 mg/mL
same,solubility,"[8]; aqueous buffer, Phosphate buffered saline, pH 7.0, 25° C.",42.1 mg/mL
same,solubility,"[8]; aqueous buffer, Phosphate buffered saline, pH 7.4, 25° C.",27.6 mg/mL
same,solubility,"[8]; simulated gastric fluid, 0.01M HCl, pH 1.7, 25° C.",> 56.6 mg/mL
same,solubility,[9]; Acetone,125 mmol
same,solubility,[9]; EtOAc,113 mmol
same,solubility,[9]; EtOH,160 mmol
same,solubility,[9]; H2O,89 mmol
same,solubility,[9]; Heptane,1 mmol
same,solubility,[9]; IPA,74 mmol
same,solubility,[9]; MTBE,17 mmol
same,solubility,[9]; MeCN,121 mmol
same,solubility,[9]; Toluene,132 mmol
same,solubility,"[9]; ethanol (EtOH), organic solvent or mixture, thermodynamic from solid, EtOH, read-out: Solubility",63.4 mg/mL
same,solubility,"[9]; ethyl acetate (EtOAc), organic solvent or mixture, thermodynamic from solid, EtOAc, read-out: Solubility",44.7 mg/mL
same,solubility,"[9]; organic solvent or mixture, thermodynamic from solid, Acetone, read-out: Solubility",49.4 mg/mL
same,solubility,"[9]; organic solvent or mixture, thermodynamic from solid, Heptane, read-out: Solubility",0.6 mg/mL
same,solubility,"[9]; organic solvent or mixture, thermodynamic from solid, IPA, read-out: Solubility",29.2 mg/mL
same,solubility,"[9]; organic solvent or mixture, thermodynamic from solid, MTBE, read-out: Solubility",6.7 mg/mL
same,solubility,"[9]; organic solvent or mixture, thermodynamic from solid, MeCN, read-out: Solubility",47.8 mg/mL
same,solubility,"[9]; organic solvent or mixture, thermodynamic from solid, Toluene, read-out: Solubility",52.2 mg/mL
same,solubility,"[9]; water, thermodynamic from solid, H2O, read-out: Solubility",35.3 mg/mL
